Here are results for ten molecules from patent publication US20240246960A1 (adMare Therapeutics Society, priority 2021, published 2024).

Like-named read-outs stand apart in the source and are kept apart here. Bounds are passed on as bounds.

In data set [1] the target is T1, DNA-PK (Homo sapiens, UniProt P78527).
T1 construct: purchased Invitrogen PR9107A
Put plainly: DNA-PK Assay for Biochemical Enzymatic Inhibition (ADP Glo Kinase assay). The following applies: Table 2. Summed up: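 Human DNA-PK (25 ng) preincubated 15 min with compounds (ten three-fold dilutions) in HEPES pH 7.5, MgCl2, KCl, calf thymus DNA buffer, then substrate 434.4 μM and ATP 64.4 μM (final) for 60 min at room temperature. ADP-Glo luminescence; percent inhibition fitted by four-parameter regression for IC50.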
On the technique in general: In ADP-Glo the light output rises with the ADP produced.

Data set [2] has as its system FaDu cell line. Put plainly: Prodrug activation in hypoxic stirred tumour cell suspensions. The data set is classed as in vitro ADME. The note with it: 10 μM, 4 hours.
Description: Prodrug compounds were assayed to determine their stability and rate of activation in stirred cell suspensions under 0.2 vs 5% oxygen. Compounds were diluted 1:1000 from DMSO stocks to 10 μM final concentration in tumour cell suspensions (1% by cell volume) in MEM media containing 10% FBS, 10 mM glucose & 3.7 g/L sodium bicarbonate. Cell lines assayed included A253, A549, Detroit562, FaDu, HCT116, HEP G2, HT29, SCC25, SCC9, SiHa & TC32. Compounds and cells were then incubated for 4 hours under constant mixing at 37° C. under 5% CO2 and either 0.2 or 5% O2. Following the incubation period cellular activation of the compounds was assayed via MeOH extraction and HPLC quantification.
Data set [3] deals with pH2AX induction in HCT116 ATM−/− multicellular tumour spheroids. Put plainly: Prodrug radiation sensitization in multicellular tumour spheroids (pH2AX induction following radiation). The data set is classed as cell-based. As for the experimental part:
Prodrug compounds were assayed to determine their potency in 3D multicellular spheroids in media maintained under 20% vs […]. Multicellular tumour spheroids were grown to approximately 0.5 mm in diameter and irradiated with 20 Gy in combination with inhibitor test compounds to determine their potency using HCT116 and FaDu cell lines. Experiments were carried out in 96 well plates containing 0.7 mls of MEM media containing 10% FBS and 10 mM glucose under […] at 37° C. Following dilution of compounds 1:1000 from DMSO stocks, compounds were serially diluted from 10 μM down to 3.5 nM and 5-10 spheroids added. 96 well plates were constantly stirred to avoid spheroids settling during the course of the experiment. Endpoints were pDNA-PK (ser 2056) or pH2AX (ser 139) status in spheroid cryosections taken 1 or 2 hours following radiation and fixed immediately in formalin. Using tumour cell lines deficient in ATM improved the assay signal to noise and gH2AX readout. Using this assay prodrug activity could be compared in the more oxygenated outer spheroid layers versus less oxygenated hypoxic central cell layers.

The target in data set [4] is T2, DNA-PK phosphorylation at Serine 2056 (Homo sapiens, UniProt P78527).
T2 construct: host or cells: FaDu
As to the kind of experiment: Cellular Assay for Inhibition of DNA-PK Phosphorylation at Serine 2056 (FaDu cells, neocarzinostatin, sandwich ELISA). The data set is classed as cell-based. The following applies: Table 2. Summed up:
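Readout was pSer2056 and total DNA-PK, measured by sandwich ELISA on protein-normalized lysates. Prior to lysis, compound was applied to FaDu cells for 1 h (0.3% DMSO), followed by 2 h of 1 μg/mL neocarzinostatin. IC50 values were fitted from log concentration versus % inhibition normalized to DMSO and NCS controls.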

A short description of data set [5]: Microsomal stability assay, human liver microsomes. Type of data set: in vitro ADME. The note with it: for Microsomal Stability (human) % rem. 60 min: Example 11; for microsomal CLint at 0.1 uM: both sexes, human, liver microsomes, pH 7.4, Example 11. As for the experimental part:
Samples were then mixed and centrifuged. Supernatants were used for HPLC-MS/MS analysis. […] Peak areas corresponding to the test compound were recorded.
In general terms: Liver microsomes are vesicles of endoplasmic reticulum, rich in cytochrome P450 enzymes.

A short description of data set [6]: Microsomal stability assay, mouse liver microsomes. The following applies: Example 11; for microsomal CLint at 0.1 uM: male, CD-1, mouse, liver microsomes, pH 7.4, Microsomal Stability Mouse Clint.
Description: Mouse liver microsomes were obtained from a pool of 250 or more male CD-1 mice. […] Final microsomal concentration was 0.1 mg/mL and test compound concentration was 0.1 uM with a maximum of 0.01% DMSO. The test compound was pre-incubated with pooled liver microsomes in phosphate buffer (pH 7.4) for 5 min in a 37° C. shaking water bath. The reaction was initiated by adding NADPH-generating system and incubated for 0, 15, 30, 45, and 60 min. The reaction was stopped by transferring the incubation mixture to acetonitrile/methanol. Samples were then mixed and centrifuged. Supernatants were used for HPLC-MS/MS analysis. The HPLC system consisted of a binary LC pump with autosampler, a C-18 column, and a gradient. Peak areas corresponding to the test compound were recorded. The compound remaining was calculated by comparing the peak area at each time point to time zero. The half-life was calculated from the slope of the initial linear range of the logarithmic curve of compound remaining (%) vs. time, assuming first order kinetics. In addition, the intrinsic clearance (Clint) was calculated from the half-life.
[7] abbreviates: Homo sapiens, HCT-116, 20 Gy, 5% O2, inner layers, read-out: Prodrug 5% O2 Inner layers EC50.
Setting [8] is: Homo sapiens, HCT-116, 20 Gy, 5% O2, outer layers, read-out: Prodrug 5% O2 Outer layers EC50.
[9] abbreviates: Homo sapiens, HCT-116, 20 Gy, 20% O2, outer layers, read-out: Prodrug 20% O2 Outer layers EC50.
[10] abbreviates: 20 Gy, 5% O2, inner layers, read-out: Prodrug 5% O2 Inner layers EC50.
Where [11] appears, read: 20 Gy, 5% O2, outer layers, read-out: Prodrug 5% O2 Outer layers EC50.
Where [12] appears, read: 20 Gy, 20% O2, outer layers, read-out: Prodrug 20% O2 Outer layers EC50.
The mark [13] stands for this setting: value of the effector of the listed prodrug, 5% O2, inner layers, read-out: Effector 5% O2 Inner layers EC50.

As for `Cn1c(CN(c2cnc3cc(N4CCOCC4)nc(OC4CCC(Nc5ncccn5)CC4)c3c2)S(C)(=O)=O)cnc1[N+](=O)[O-]` (stereo not shown) [LFA008, N-[(3-Methyl-2-nitro-imidazol-4-yl)methyl]-N-[7-morpholino-5-[4-(pyrimidin-2-ylamino)cyclohexoxy]-1,6-naphthyridin-3-yl]methanesulfonamide], the IC50 in data set [1] lay in the range of 10 to 150 nM. The “Fraction of prodrug converted to active form, Hypoxic 0.2% O2” value (“Fraction … Hypoxic 0.2% O2” below) in data set [2] was “B (B is 0.05 to 0.15)”. In data set [2], the “Fraction of prodrug converted to active form, Oxic 5% O2” value (“Fraction … Oxic 5% O2” below) is recorded as “D (D is 0 to 0.02)”. For the same molecule, the EC50 lay within 10 to 500 nM in data set [3] (setting [7]), 500 to 1000 nM in data set [3] (setting [8]) and 1000 to 10000 nM in data set [3] (setting [9]).

In the case of `Cn1c(CN(c2cnc3cc(N4CCOCC4)nc(OC4CCC(n5ccnc5)CC4)c3c2)S(C)(=O)=O)cnc1[N+](=O)[O-]` (stereo not shown) [LFA018, N-[5-(4-Imidazol-1-ylcyclohexoxy)-7-morpholino-1,6-naphthyridin-3-yl]-N-[(3-methyl-2-nitro-imidazol-4-yl)methyl]methanesulfonamide], the half-maximal inhibitory concentration (IC50) lay within 10 to 150 nM in data set [1] and 10000 to 30000 nM in data set [4]. The “Fraction … Hypoxic 0.2% O2” value in data set [2] is listed as “B (B is 0.05 to 0.15)”. In addition, the “Fraction … Oxic 5% O2” value in data set [2] was “D (D is 0 to 0.02)”. Also, the EC50 in data set [3] (setting [7]), in data set [3] (setting [8]) and in data set [3] (setting [9]) was 1000 to 10000 nM each time.

In the case of `Cn1c(CN(c2cnc3cc(N4CCOCC4)nc(OC4CCC(Nc5ncc(C(F)(F)F)cn5)CC4)c3c2)S(C)(=O)=O)cnc1[N+](=O)[O-]` (stereo not shown) [LFA023, N-[(3-Methyl-2-nitro-imidazol-4-yl)methyl]-N-[7-morpholino-5-[4-[[5-(trifluoromethyl)pyrimidin-2-yl]amino]cyclohexoxy]-1,6-naphthyridin-3-yl]methanesulfonamide], in data set [2], the “Fraction … Hypoxic 0.2% O2” value is “B (B is 0.05 to 0.15)” and the “Fraction … Oxic 5% O2” value was “D (D is 0 to 0.02)”. The EC50 in data set [3] (setting [7]) lay in the range of 500 to 1000 nM. Moreover, the EC50 in data set [3] (setting [8]) fell in the range of 1000 to 10000 nM. The EC50 in data set [3] (setting [9]) was in the range of 1000 to 10000 nM. In data set [5], the “Microsomal Stability (human) % rem. 60 min” value was “F (% remaining = 25-50%)” and the microsomal CLint at 0.1 uM was under 116 µL/min/mg.

In the case of `CC(c1cnc([N+](=O)[O-])n1C)N(c1cnc2cc(N3CCOCC3)nc(OC3CCC(Nc4ncc(C(F)(F)F)cn4)CC3)c2c1)S(C)(=O)=O` (stereo not shown) [LFA024, N-[1-(3-Methyl-2-nitro-imidazol-4-yl)ethyl]-N-[7-morpholino-5-[4-[[5-(trifluoromethyl)pyrimidin-2-yl]amino]cyclohexoxy]-1,6-naphthyridin-3-yl]methanesulfonamide], in data set [2], the “Fraction … Hypoxic 0.2% O2” value is listed as “B (B is 0.05 to 0.15)” and the “Fraction … Oxic 5% O2” value is “D (D is 0 to 0.02)”. Also, in data set [3] (setting [7]), the EC50 was in the range of 10 to 500 nM. For the same molecule, the EC50 in data set [3] (setting [8]) lay in the range of 1000 to 10000 nM. For the same molecule, the EC50 in data set [3] (setting [9]) lay within 10000 to 100000 nM. For the same molecule, in data set [5], the “Microsomal Stability (human) % rem. 60 min” value was “E (% remaining = 0-25%)” and the microsomal CLint at 0.1 uM was under 116 µL/min/mg. In data set [6], the “Microsomal Stability (mouse) % rem. 60 min” value is “E (% remaining = 0-25%)” and the microsomal CLint at 0.1 uM was over 116 µL/min/mg.

Take `Cn1c(CN(c2cnc3cc(N4CCOCC4)nc(OC4CCC(Nc5ncc(C#N)cn5)CC4)c3c2)S(C)(=O)=O)cnc1[N+](=O)[O-]` (stereo not shown) [LFA026, N-[5-[4-[(5-Cyanopyrimidin-2-yl)amino]cyclohexoxy]-7-morpholino-1,6-naphthyridin-3-yl]-N-[(3-methyl-2-nitro-imidazol-4-yl)methyl]methanesulfonamide]: in data set [2], the “Fraction … Hypoxic 0.2% O2” value is given as “B (B is 0.05 to 0.15)” and the “Fraction … Oxic 5% O2” value was “D (D is 0 to 0.02)”. Moreover, the EC50 in data set [3] (setting [7]) was 10 to 500 nM. In data set [3] (setting [8]), the EC50 fell in the range of 1000 to 10000 nM. Moreover, in data set [3] (setting [9]), the EC50 is 1000 to 10000 nM. Besides, in data set [5], the “Microsomal Stability (human) % rem. 60 min” value is “E (% remaining = 0-25%)” and the microsomal CLint at 0.1 uM was over 116 µL/min/mg.

Regarding `CC(c1cnc([N+](=O)[O-])n1C)N(c1cnc2cc(N3CCOCC3)nc(OC3CCC(Nc4ncc(C#N)cn4)CC3)c2c1)S(C)(=O)=O` (stereo not shown) [LFA027, N-[5-[4-[(5-Cyanopyrimidin-2-yl)amino]cyclohexoxy]-7-morpholino-1,6-naphthyridin-3-yl]-N-[1-(3-methyl-2-nitro-imidazol-4-yl)ethyl]methanesulfonamide], in data set [2], the “Fraction … Hypoxic 0.2% O2” value is given as “B (B is 0.05 to 0.15)” and the “Fraction … Oxic 5% O2” value was “C (C is 0.02 to 0.05)”. Besides, the EC50 in data set [3] (setting [7]) lay in the range of 10 to 500 nM. The concentration giving a half-maximal response (EC50) in data set [3] (setting [8]) lay within 500 to 1000 nM. Further, the EC50 in data set [3] (setting [9]) lay in the range of 1000 to 10000 nM. In data set [5], the “Microsomal Stability (human) % rem. 60 min” value is given as “E (% remaining = 0-25%)” and the microsomal CLint at 0.1 uM is over 116 µL/min/mg. In data set [6], the “Microsomal Stability (mouse) % rem. 60 min” value was “E (% remaining = 0-25%)” and the microsomal CLint at 0.1 uM is over 116 µL/min/mg.

Consider `Cn1c(CN(c2cnc3cc(N4CCOCC4)nc(OC4CCC(Nc5ccn6nccc6n5)CC4)c3c2)S(C)(=O)=O)cnc1[N+](=O)[O-]` (stereo not shown) [LFA035, N-[(3-Methyl-2-nitro-imidazol-4-yl)methyl]-N-[7-morpholino-5-[4-(pyrazolo[1,5-a]pyrimidin-5-ylamino)cyclohexoxy]-1,6-naphthyridin-3-yl]methanesulfonamide], for which the “Fraction … Hypoxic 0.2% O2” value in data set [2] is reported as “B (B is 0.05 to 0.15)”. Besides, in data set [2], the “Fraction … Oxic 5% O2” value is on record as “D (D is 0 to 0.02)”. The EC50 in data set [3] (setting [7]) was in the range of 10 to 500 nM; in data set [3] (setting [8]), 1000 to 10000 nM; in data set [3] (setting [9]), 1000 to 10000 nM.

As for `CC(c1cnc([N+](=O)[O-])n1C)N(c1cnc2cc(N3CCOCC3)nc(OC3CCC(Nc4ccn5nccc5n4)CC3)c2c1)S(C)(=O)=O` (stereo not shown) [LFA036, N-[1-(3-Methyl-2-nitro-imidazol-4-yl)ethyl]-N-[7-morpholino-5-[4-(pyrazolo[1,5-a]pyrimidin-5-ylamino)cyclohexoxy]-1,6-naphthyridin-3-yl]methanesulfonamide], the “Fraction … Hypoxic 0.2% O2” value in data set [2] is reported as “A (A is 0.15 to 1)”. Besides, in data set [2], the “Fraction … Oxic 5% O2” value is reported as “D (D is 0 to 0.02)”. The EC50 in data set [3] (setting [7]) is 10 to 500 nM; in data set [3] (setting [8]) it was 500 to 1000 nM; in data set [3] (setting [9]), 10000 to 100000 nM.

For `Cn1c(Cn2cnc(-c3cnc4cc(N5CCOCC5)nc(OC5CCC(Nc6ncccn6)CC5)c4c3)n2)cnc1[N+](=O)[O-]` (stereo not shown) [LFA138], the “Fraction … Hypoxic 0.2% O2” value in data set [2] was “D (D is 0 to 0.02)”. Besides, in data set [2], the “Fraction … Oxic 5% O2” value was “D (D is 0 to 0.02)”. In addition, the EC50 in data set [3] (setting [10]) was 1000 to 10000 nM; in data set [3] (setting [11]), 1000 to 10000 nM; in data set [3] (setting [12]) it was 1000 to 10000 nM; in data set [3] (setting [13]) it was 10 to 500 nM.

Take `Cn1c(Cn2ncnc2-c2cnc3cc(N4CCOCC4)nc(O[C@H]4CC[C@@H](Nc5ncccn5)CC4)c3c2)cnc1[N+](=O)[O-]` [LFA139]: in data set [2], the “Fraction … Hypoxic 0.2% O2” value is listed as “B (B is 0.05 to 0.15)”. Moreover, the “Fraction … Oxic 5% O2” value in data set [2] is “D (D is 0 to 0.02)”. Also, the EC50 in data set [3] (setting [10]) was in the range of 500 to 1000 nM; in data set [3] (setting [11]), 500 to 1000 nM; in data set [3] (setting [12]) it was 1000 to 10000 nM; in data set [3] (setting [13]) it was 10 to 500 nM.

The term IC50 denotes the concentration that inhibits the measured activity by half. Broadly, the EC50 is the concentration needed to bring the measured effect to its halfway point. A word on the microsomal CLint: it is the capacity of the preparation to metabolise the compound, expressed as a volume cleared per time.
